Measurements from patent US20080206222A1, “Preventive/Therapeutic Composition For Free Radical Disease” (priority 2004, published 2008).

Columns and labels:
[1] = Stability test in aqueous solution (HPLC residual ratio); type: physicochemical; settings: 0.1% aqueous solution in purified water, room temperature
Description: A difference in the stabilities of PVP/fullerene (molecular weight of PVP: 60,000), a fullerene monoester, and salts of a fullerene monoester in an aqueous solution (a storage test at room temperature for 10 days) is shown in Table 7. […] Incidentally, the stability was evaluated by determining the residual ratio of the above substance using the HPLC method by leaving a 0.1% aqueous solution of the above substance (in purified water) at room temperature for 10 days.

[2] = system: human fibrosarcoma cell line HT1080; test: Test for cell migration (cell haptotaxis), Boyden double chamber; type: cell-based; settings: HT1080, administered at 300 μM; coulometry and HPLC with ECD
Description: A Boyden double chamber was used, in which a porous film with 8 μm pores was placed, the upper surface of the porous film was coated with Matrigel as a reconstituted basement membrane, the lower surface of the porous film was coated with fibronectin as an extracellular matrix. […] Further, the concentration of ascorbic acid present in the cells was determined by coulometry and HPLC with ECD.

[3] = system: Bovine aortic endothelial cells BAE2; settings: 22 h, 50 μM
Description: Bovine aortic endothelial cells BAE2 were inoculated at a cell density of 8×10^4/cm^2, and after 18 hours, each of a fullerene, ascorbic acid and the fullerenes of the invention of this application of the formulation Nos. 1 to 13 shown in the above Table 1 was administered at a concentration of 50 μM which falls within the range of the level of the respective substances in the normal human blood. After 22 hours, the amounts of fullerenes and ascorbic acid present in the cells were determined by coulometry and HPLC (high-performance liquid chromatography) with ECD (electrochemical detection). The water content in the cells was measured by gas chromatography using 14C-labeled polyethylene glycol and found to be 0.598 μL/cell.

[4] = system: rat coronary artery occlusion model; test: Test for comparative effect on organ failure (versus human Cu-Zn SOD); type: in vivo; settings: 5 mg/kg intravenously before occlusion and once daily for 5 days; dissection after 10 days; control Ringer's solution with human Cu-Zn SOD
Description: A rat coronary artery occlusion model was subjected to systemic ischemia for 5 minutes, followed by reperfusion. When the level of free radical-dependent chemiluminescence in the peripheral blood was measured using a chemical luminescence manufactured by Showa Denko K. K. from the start of this experiment, a significant increase in the level of free radical was observed from immediately after the initiation of reperfusion. In a test group, the injectable solution of Example 2 was intravenously administered to the rat at 5 mg/kg at 15 minutes before the occlusion of the coronary artery of the rat in advance, and in a control group, a Ringer's solution supplemented with human Cu—Zn SOD was injected in the same manner as in the test group. Also after the initiation of reperfusion, the above pharmaceutical composition of the present invention was injected at the same dose once daily for 5 days, and after 10 days, dissection was carried out, and cardiac, hepatic, renal, pancreatic and cystic cell necrosis indices were determined using a 45 Ca-autoradiography/image analyzer.

Row | Residual ratio after 10 days (%) [1] [%] | concentration of ascorbic acid present in the cells [2] [µM] | concentration in the cells [3] [µM] | concentration in the cells relative to that outside the cells [3] [times] | Compound | necrosis of cardiac, hepatic, renal, pancreatic and cystic cells (45Ca-autoradiography/image analyzer) [4]
1 | 0 | 103 | 60 | 1.2 | O=C1O[C@H]([C@@H](O)CO)C(O)=C1O [Ascorbic acid] | –
2 | – | – | – | – | human Cu—Zn SOD: human Cu—Zn SOD added to Ringer's solution for the control group | delayed cell death
